Source: patent US20180078576A1, “SULPHATED XYLANS FOR TREATMENT OR PROPHYLAXIS OF RESPIRATORY DISEASES” (Paradigm Biopharmaceuticals Limited, priority 2007, published 2018)

What was measured:
[1] = target: T1, recombinant human IL-4 (rhIL-4) (Homo sapiens, UniProt P05112); test: BIAcore inhibition of IL-4 binding to immobilized heparin; details: BIAcore chip, titration, FIG. 3A
T1 construct: made in house; host or cells: baculovirus expression system
T1 sequence (P05112 25-153): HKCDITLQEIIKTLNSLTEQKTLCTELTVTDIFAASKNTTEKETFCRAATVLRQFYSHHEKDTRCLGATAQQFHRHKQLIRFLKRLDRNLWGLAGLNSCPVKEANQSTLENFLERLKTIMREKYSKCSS
Description: The optical phenomenon of surface plasmon resonance is used to monitor physical interactions between molecules. Passing a solution of a potential protein ligand (e.g. IL-4, IL-5 or eotaxin) over a sensor surface to which a target (e.g. heparin) is coupled monitors the real-time binding of protein ligands to the immobilized target. Detection is achieved by measuring refractive index changes very close to the sensor surface. When the refractive index is altered, the angle at which plasmon resonance occurs changes and this change directly correlates with the amount of protein interacting with the surface. A BIAcore 2000 is conveniently used. […]
Biotinylated heparin is immobilized on the biosensor chip. […] Solutions containing potential protein ligands of interest are injected over the sensor chip surface, and the binding is measured in real time (Fernig, In: Proteoglycan protocols, Ed. R. V. Iozzo, Humana Press, Totowa, N.J., USA, 2001). Baculovirus expressed recombinant human IL-4 (rhIL-4) and baculovirus expressed recombinant human IL-5 (rhIL-5) readily bind to heparin immobilized by this method (see PCT/AU2005/000551). […] Similarly, recombinant human eotaxin (CCL11) expressed in E. coli binds readily to immobilized heparin and binding is specific as there is little eotaxin binding to sensor chips lacking heparin. […]

[2] = tested on: guinea pigs sensitized with ovalbumin (OVA) and challenged intranasally with OVA; test: Allergic rhinitis model in the guinea pig (OVA); assay type: in vivo
Experimental: An allergic rhinitis model in the guinea pig was used. The guinea pigs are sensitized to ovalbumin (OVA) twice (on days 0 and 7) by an intraperitoneal injection of 0.5 ml saline containing 100 mg Al(OH)3 and 2 μg OVA. Three weeks after the last sensitization, animals are anaesthetized and the exposure of the nasal cavity to allergen is performed by dropping OVA solution at 20 mg/ml into bilateral nasal cavities. For the negative control the animals receive sensitization and challenge with saline. The animals are pretreated with either vehicle or drug (pentosan polysulfate or Budesonide) 30 min prior to intranasal instillation of OVA. Vehicle or drugs are administered, 25 μl-50 μl/nostril. A comparison of the pentosan polysulfate with Budesomde, as the reference compound, is included. Animals are terminated and all parameters measured eight hours after the provocation.
The nasal mucosal barrier permeability is assessed by measuring the leakage of protein-rich and non-sieved plasma into the nasal cavities. The amount of extravasated plasma is indicated as nasal lavage levels of total protein or albumin. Nasal lavage fluid is collected by gently rinsing the nasal cavities with phosphate buffered saline. The cells in this fluid are centrifuged and resuspended in phosphate buffered saline and counted using a semiautomated haematology analyzer. The cell composition of the nasal lavage is determined after a cytospin and staining with May Grynwald Giemsa.

[3] = target: T2, Elastase (Homo sapiens, UniProt P08246); test: Elastase activity on collagen substrate; assay type: biochemical; details: collagen coated wells, 37° C., 30 minutes
T2 sequence (P08246 30-267): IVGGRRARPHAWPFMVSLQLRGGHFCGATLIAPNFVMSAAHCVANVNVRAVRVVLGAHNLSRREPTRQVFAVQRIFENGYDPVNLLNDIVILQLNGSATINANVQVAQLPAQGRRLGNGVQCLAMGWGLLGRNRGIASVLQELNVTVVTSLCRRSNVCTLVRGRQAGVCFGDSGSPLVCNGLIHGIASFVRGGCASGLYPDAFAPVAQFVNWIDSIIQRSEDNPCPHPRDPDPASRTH
Experimental: Elastase activity was also measured using a physiological substrate, collagen. For these experiments collagen was coated onto the wells of a microplate. Tris buffer (50 μl) was added together with 25 μl of either inhibitor (PPS or other sulfated polysaccharides) or buffer. The plate was incubated at 37° C. for 30 minutes, before staining the wells for protein. After drying the wells at room temperature the remaining colour was dissolved by adding 200 μl of lysis solution (10% w/v SDS in DMSO) and the OD measured at […]. Control experiments include collagen without enzyme digestion as 100% values and with enzyme digestion but without inhibitor as 0% values.

[4] = target: T3, Human leukocyte elastase (Homo sapiens, UniProt P08246); test: Elastase assay with fluorogenic substrate; assay type: biochemical; details: fluorogenic substrate MeOSuc-Ala-Ala-Pro-Val-amido-methylcoumarin, pH 7.4, 37° C., 60 minutes; read-out: IC50, inhibition of human leukocyte elastase activity
T3 sequence (P08246 30-267): T2 sequence (P08246 30-267)
Experimental: Elastase is a protein that is a potential target for the treatment of COPD. Elastase assays were performed in 96-well plastic microplates for easy quantification by the fluorescent plate reader. Human leukocyte elastase (5 nM/well) was incubated in the presence of absence of pentosan polysulfate, or other sulfated polysaccharides, with the fluorogenic substrate MeOSuc-Ala-Ala-Pro-Val-amido-methylcoumarin (20 μM/well) in a sodium phosphate buffer, pH 7.4. The mixture was incubated at 37° C. for 60 minutes before the reaction was stopped by the addition of 10 μl/well of […] acetic acid and the mixture transferred to a 96-well microplate with fluorescence being measured using an excitation wavelength of 355 nm and an emission wavelength of 460 nm. Various concentrations of inhibitors were used to allow the calculation of the concentration of polysaccharide required to inhibit enzyme activity by 50% (IC50).

Substance: Pentosan polysulfate [PPS]
- IC50 [1]: 0.025 to 0.08 µM
- Leukocyte infiltration into nasal lavage fluid (total white cell numbers) ([2]; 8 hours after intranasal OVA challenge, FIG. 12): inhibited leukocyte infiltration at all the concentrations tested
- Protein content of nasal lavage fluid (plasma exudation) ([2]; 8 hours after intranasal OVA challenge, drug intranasal 30 min before, FIG. 11): significantly reduced
- Cellular infiltrate in nasal lavage fluid ([2]; drugs at 5 mg/kg, FIG. 13): markedly reduced
- Inhibition of elastase activity on collagen (in words) [3]: effective elastase inhibitor
- IC50 [4]: ~1.8 µM
